Results published in PubChem BioAssay AID248 (DTP/NCI, 2004).
Where “and” joins values, the source holds several entries; their conditions need not be identical. Identical values can stand only once. Toxic doses and inconclusive results are not listed. Cut-off read from the data, not from the text of the source: active = T/C of 150% or more; inactive = T/C below 125%.

Test system: L1210 leukemia ip in BDF1 mice, survival T/C
Assay: NCI In Vivo Anticancer Drug Screen. Data for tumor model L1210 Leukemia (intraperitoneal) in B6D2F1 (BDF1) mice
Conditions: endpoint: mean survival time, higher = longer survival
Outline: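 Tumor was transplanted into mice, which were then dosed with test compound or vehicle alone. Survival was recorded for each group, and the treated figure was expressed relative to the control figure.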

[1] = dose: 100.0 mg/kg/injection, schedule: Q01DX009 (ip), vehicle: saline
[2] = dose: 200.0 mg/kg/injection, schedule: Q01DX009 (ip), vehicle: saline
[3] = dose: 400.0 mg/kg/injection, schedule: Q01DX009 (ip), vehicle: saline
[4] = dose: 100.0 mg/kg/injection, schedule: Q01DX001 (ip), vehicle: carboxymethylcellulose (CMC)
[5] = dose: 200.0 mg/kg/injection, schedule: Q01DX001 (ip), vehicle: carboxymethylcellulose (CMC)
[6] = dose: 50.0 mg/kg/injection, schedule: Q01DX009 (ip), vehicle: saline with Tween-80
[7] = dose: 100.0 mg/kg/injection, schedule: Q01DX009 (ip), vehicle: saline with Tween-80
[8] = dose: 200.0 mg/kg/injection, schedule: Q01DX009 (ip), vehicle: saline with Tween-80
[9] = dose: 400.0 mg/kg/injection, schedule: Q01DX009 (ip), vehicle: saline with Tween-80
[10] = dose: 100.0 mg/kg/injection, schedule: Q01DX009 (ip), vehicle: Klucel (hydroxypropylcellulose) (HPC)
[11] = dose: 200.0 mg/kg/injection, schedule: Q01DX009 (ip), vehicle: Klucel (hydroxypropylcellulose) (HPC)
[12] = dose: 100.0 mg/kg/injection, schedule: Q01DX009 (ip), vehicle: other
[13] = dose: 200.0 mg/kg/injection, schedule: Q01DX009 (ip), vehicle: other
[14] = dose: 400.0 mg/kg/injection, schedule: Q01DX009 (ip), vehicle: other

Measured: T/C

CC(C)NC(=O)/C=C/C(=O)O
inactive: [1] 92 % of control | [2] 95 % of control | [3] 92 % of control

Cc1cc([N+](=O)[O-])c(N/N=C/c2c[nH]c3ccccc23)c([N+](=O)[O-])c1
inactive: [1] 102 % of control | [2] 93 % of control | [3] 98 % of control

CC(C(=O)c1ccc(Br)cc1)C(O)(C(F)(F)F)C(F)(F)F (stereo not drawn)
inactive: dose: 100.0 mg/kg/injection, schedule: Q01DX007 (ip), vehicle: saline with Tween-80 102 % of control | dose: 200.0 mg/kg/injection, schedule: Q01DX007 (ip), vehicle: saline with Tween-80 109 % of control | dose: 400.0 mg/kg/injection, schedule: Q01DX007 (ip), vehicle: saline with Tween-80 101 % of control

CCC/C(=C/c1cc2ccccc2c2ccccc12)[N+](=O)[O-]
inactive: [4] 97 % of control | [5] 111 % of control | dose: 400.0 mg/kg/injection, schedule: Q01DX001 (ip), vehicle: carboxymethylcellulose (CMC) 106 % of control

CCC(C)C(CCCN1CCCCC1)(CNC(=O)CN(CC)CC)c1cccc2ccccc12 (stereo not drawn)
inactive: dose: 25.0 mg/kg/injection, schedule: Q01DX009 (ip), vehicle: saline 96 % of control | dose: 50.0 mg/kg/injection, schedule: Q01DX009 (ip), vehicle: saline 100 % of control | [1] 103 % of control | dose: 100.0 mg/kg/injection, schedule: Q04DX003 (ip), vehicle: saline 103 % of control

COc1ccc(/C=C/C(=O)c2cc(C(=O)O)c(OC)cc2OC)cc1OC
inactive: dose: 12.5 mg/kg/injection, schedule: Q01DX009 (ip), vehicle: saline with Tween-80 111 % of control | dose: 25.0 mg/kg/injection, schedule: Q01DX009 (ip), vehicle: saline with Tween-80 93 % of control | [6] 98 % of control | [7] 98 % of control | [8] 95 % of control

O=C(Oc1ccccc1)c1ccc2[nH]c(=O)c(C(=O)O)nc2c1
inactive: dose: 25.0 mg/kg/injection, schedule: Q01DX001 (ip), vehicle: saline with Tween-80 96 % of control | dose: 50.0 mg/kg/injection, schedule: Q01DX001 (ip), vehicle: saline with Tween-80 100 % of control | dose: 100.0 mg/kg/injection, schedule: Q01DX001 (ip), vehicle: saline with Tween-80 98 % of control

Fc1ccc(C(c2ccc(F)cc2)C(Cl)Cl)cc1
inactive: [7] 95 % of control | [8] 97 % of control | [9] 93 % of control

Oc1cccc2ccc3cccc(O)c3c12
inactive: dose: 100.0 mg/kg/injection, schedule: Q04DX003 (ip), vehicle: alcohol 100 % of control | dose: 200.0 mg/kg/injection, schedule: Q04DX003 (ip), vehicle: alcohol 93 % of control

CC(=O)C(CCC#N)(CCC#N)CCC#N
inactive: dose: 75.0 mg/kg/injection, schedule: Q01DX009 (ip), vehicle: saline 93 % of control | dose: 150.0 mg/kg/injection, schedule: Q01DX009 (ip), vehicle: saline 95 % of control | dose: 200.0 mg/kg/injection, schedule: Q04DX003 (ip), vehicle: saline 102 % of control | dose: 300.0 mg/kg/injection, schedule: Q01DX009 (ip), vehicle: saline 93 % of control | dose: 400.0 mg/kg/injection, schedule: Q04DX003 (ip), vehicle: saline 87 % of control

Cc1ccc(CNC(=O)NC(C)(C)C)c(C)c1
inactive: [10] 97 % of control | [11] 104 % of control | dose: 400.0 mg/kg/injection, schedule: Q01DX009 (ip), vehicle: Klucel (hydroxypropylcellulose) (HPC) 92 % of control

O=C(C[N+]12CC=C(CO)C1C(O)CC2)c1ccc(Br)cc1 (stereo not drawn)
inactive: dose: 100.0 mg/kg/injection, schedule: Q01DX001 (ip), vehicle: saline 104 % of control | dose: 200.0 mg/kg/injection, schedule: Q01DX001 (ip), vehicle: saline 101 % of control

OC1(Cc2ccccc2)CCCCCC1
inactive: dose: 100.0 mg/kg/injection, schedule: Q01DX005 (ip), vehicle: other 118 % of control | [12] 103 % of control | dose: 200.0 mg/kg/injection, schedule: Q01DX005 (ip), vehicle: other 93 % of control | [13] 118 % of control | dose: 400.0 mg/kg/injection, schedule: Q01DX005 (ip), vehicle: other 93 % of control | [14] 100 % of control

CS(=O)(=O)OCCC(COS(C)(=O)=O)S(=O)(=O)CCCOc1ccccc1-c1ccccc1 (stereo not drawn)
inactive: [6] 94 % of control | [7] 94 % of control | [8] 94 % of control

O=S(=O)(F)c1cc(Cl)cc(Cl)c1O
inactive: dose: 100.0 mg/kg/injection, schedule: Q04DX002 (ip), vehicle: other 93 % of control | dose: 200.0 mg/kg/injection, schedule: Q04DX002 (ip), vehicle: other 93 % of control | dose: 400.0 mg/kg/injection, schedule: Q04DX002 (ip), vehicle: other 104 % of control

CC12c3ccccc3C(c3c1ccc1ccccc31)C1C(=O)OC(=O)C12 (stereo not drawn)
inactive: dose: 100.0 mg/kg/injection, schedule: Q04DX003 (ip), vehicle: Klucel (hydroxypropylcellulose) (HPC) 96 % of control | dose: 200.0 mg/kg/injection, schedule: Q04DX003 (ip), vehicle: Klucel (hydroxypropylcellulose) (HPC) 104 % of control | dose: 400.0 mg/kg/injection, schedule: Q04DX003 (ip), vehicle: Klucel (hydroxypropylcellulose) (HPC) 98 % of control

O=C(Nc1cccc(F)c1)N(Cc1ccccc1)c1ccccc1
inactive: [7] 91 % of control | [8] 91 % of control | [9] 98 % of control

Br/C=C/c1ccccc1
inactive: dose: 100.0 mg/kg/injection, schedule: Q04DX002 (ip), vehicle: saline with Tween-80 94 % of control | dose: 200.0 mg/kg/injection, schedule: Q04DX002 (ip), vehicle: saline with Tween-80 97 % of control | dose: 400.0 mg/kg/injection, schedule: Q04DX002 (ip), vehicle: saline with Tween-80 100 % of control

O=C(/C=N/O)Nc1ccc([N+](=O)[O-])cc1
inactive: dose: 100.0 mg/kg/injection, schedule: Q04DX002 (ip), vehicle: Klucel (hydroxypropylcellulose) (HPC) 92 % of control | dose: 200.0 mg/kg/injection, schedule: Q04DX002 (ip), vehicle: Klucel (hydroxypropylcellulose) (HPC) 100 % of control | dose: 400.0 mg/kg/injection, schedule: Q04DX002 (ip), vehicle: Klucel (hydroxypropylcellulose) (HPC) 92 % of control

N#Cc1cccc(C(=O)Cl)c1
inactive: dose: 25.0 mg/kg/injection, schedule: Q01DX009 (ip), vehicle: carboxymethylcellulose (CMC) 95 % of control and 96 % of control | dose: 50.0 mg/kg/injection, schedule: Q01DX009 (ip), vehicle: carboxymethylcellulose (CMC) 100 % of control and 89 % of control | [4] 92 % of control | dose: 100.0 mg/kg/injection, schedule: Q01DX009 (ip), vehicle: carboxymethylcellulose (CMC) 92 % of control and 95 % of control and 96 % of control | dose: 100.0 mg/kg/injection, schedule: Q04DX002 (ip), vehicle: carboxymethylcellulose (CMC) 95 % of control and 89 % of control | dose: 100.0 mg/kg/injection, schedule: Q04DX003 (ip), vehicle: carboxymethylcellulose (CMC) 96 % of control and 100 % of control | [5] 92 % of control and 98 % of control | dose: 200.0 mg/kg/injection, schedule: Q04DX002 (ip), vehicle: carboxymethylcellulose (CMC) 95 % of control | dose: 200.0 mg/kg/injection, schedule: Q04DX003 (ip), vehicle: carboxymethylcellulose (CMC) 96 % of control and 100 % of control | dose: 400.0 mg/kg/injection, schedule: Q04DX003 (ip), vehicle: carboxymethylcellulose (CMC) 91 % of control

CCCCCCCCCCCC(=O)CCCCC
inactive: [12] 91 % of control | [13] 94 % of control | [14] 91 % of control

CC(C)(C)c1cc(C#N)cc(C(C)(C)C)c1O
inactive: dose: 50.0 mg/kg/injection, schedule: Q01DX009 (ip), vehicle: Klucel (hydroxypropylcellulose) (HPC) 96 % of control | [10] 103 % of control | [11] 96 % of control

N#Cc1nc2c(nc1C#N)-c1ccccc1C2=O
inactive: dose: 6.25 mg/kg/injection, schedule: Q01DX009 (ip), vehicle: Klucel (hydroxypropylcellulose) (HPC) 99 % of control | dose: 12.5 mg/kg/injection, schedule: Q01DX009 (ip), vehicle: Klucel (hydroxypropylcellulose) (HPC) 94 % of control | dose: 12.5 mg/kg/injection, schedule: Q04DX003 (ip), vehicle: Klucel (hydroxypropylcellulose) (HPC) 104 % of control | dose: 25.0 mg/kg/injection, schedule: Q04DX003 (ip), vehicle: Klucel (hydroxypropylcellulose) (HPC) 112 % of control
